Assay [1] addresses T1, Ephrin type-A receptor 8 (Homo sapiens) (UniProt P29322).
T1 sequence (whole entry): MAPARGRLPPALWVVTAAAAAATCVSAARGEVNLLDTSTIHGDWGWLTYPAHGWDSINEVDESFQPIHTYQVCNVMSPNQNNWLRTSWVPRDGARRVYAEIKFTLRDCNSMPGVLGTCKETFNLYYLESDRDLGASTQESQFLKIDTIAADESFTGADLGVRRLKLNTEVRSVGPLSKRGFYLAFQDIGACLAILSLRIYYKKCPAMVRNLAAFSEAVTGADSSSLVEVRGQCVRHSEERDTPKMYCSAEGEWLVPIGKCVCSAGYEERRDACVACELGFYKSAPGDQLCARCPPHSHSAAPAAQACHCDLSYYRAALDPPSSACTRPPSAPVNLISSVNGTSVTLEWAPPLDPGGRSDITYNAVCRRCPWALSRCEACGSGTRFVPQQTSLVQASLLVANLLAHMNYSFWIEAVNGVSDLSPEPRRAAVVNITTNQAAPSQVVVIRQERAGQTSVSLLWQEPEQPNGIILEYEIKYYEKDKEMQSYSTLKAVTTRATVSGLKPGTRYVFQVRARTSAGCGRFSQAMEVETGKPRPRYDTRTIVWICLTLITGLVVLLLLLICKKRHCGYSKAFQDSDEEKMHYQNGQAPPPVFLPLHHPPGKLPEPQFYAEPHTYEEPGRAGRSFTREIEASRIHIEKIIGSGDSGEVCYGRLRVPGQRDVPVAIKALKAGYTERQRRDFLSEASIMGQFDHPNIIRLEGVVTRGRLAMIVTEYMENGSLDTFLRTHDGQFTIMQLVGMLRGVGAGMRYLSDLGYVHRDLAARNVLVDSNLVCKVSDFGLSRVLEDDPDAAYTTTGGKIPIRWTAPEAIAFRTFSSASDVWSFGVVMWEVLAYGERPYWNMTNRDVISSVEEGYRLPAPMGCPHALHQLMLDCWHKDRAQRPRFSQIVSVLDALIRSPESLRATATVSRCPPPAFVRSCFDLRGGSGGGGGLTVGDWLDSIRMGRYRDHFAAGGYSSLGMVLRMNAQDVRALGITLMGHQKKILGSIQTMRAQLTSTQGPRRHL
Description: Selectivity interaction (SelectScreen profiling (Invitrogen)) EUB0000607a EPHA8. The conditions noted are these: at 2 µM.

The target in assay [2] is T2, Aurora kinase A (Homo sapiens) (UniProt O14965).
T2 sequence (whole entry): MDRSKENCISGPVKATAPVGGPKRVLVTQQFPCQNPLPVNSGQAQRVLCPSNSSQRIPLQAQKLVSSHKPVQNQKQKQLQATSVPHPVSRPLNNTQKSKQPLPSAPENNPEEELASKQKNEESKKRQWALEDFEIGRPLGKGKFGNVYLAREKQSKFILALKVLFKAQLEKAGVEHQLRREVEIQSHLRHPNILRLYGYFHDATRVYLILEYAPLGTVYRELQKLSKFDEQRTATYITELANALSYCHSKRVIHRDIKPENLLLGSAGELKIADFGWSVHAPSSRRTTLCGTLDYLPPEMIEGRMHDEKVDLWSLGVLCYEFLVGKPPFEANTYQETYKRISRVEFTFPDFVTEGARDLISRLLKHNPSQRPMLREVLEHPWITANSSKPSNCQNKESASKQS
The conditions noted are these: at 10 µM.

Assay [3] concerns the target T3, Histone-arginine methyltransferase CARM1 (Homo sapiens) (UniProt Q86X55).
T3 sequence (whole entry): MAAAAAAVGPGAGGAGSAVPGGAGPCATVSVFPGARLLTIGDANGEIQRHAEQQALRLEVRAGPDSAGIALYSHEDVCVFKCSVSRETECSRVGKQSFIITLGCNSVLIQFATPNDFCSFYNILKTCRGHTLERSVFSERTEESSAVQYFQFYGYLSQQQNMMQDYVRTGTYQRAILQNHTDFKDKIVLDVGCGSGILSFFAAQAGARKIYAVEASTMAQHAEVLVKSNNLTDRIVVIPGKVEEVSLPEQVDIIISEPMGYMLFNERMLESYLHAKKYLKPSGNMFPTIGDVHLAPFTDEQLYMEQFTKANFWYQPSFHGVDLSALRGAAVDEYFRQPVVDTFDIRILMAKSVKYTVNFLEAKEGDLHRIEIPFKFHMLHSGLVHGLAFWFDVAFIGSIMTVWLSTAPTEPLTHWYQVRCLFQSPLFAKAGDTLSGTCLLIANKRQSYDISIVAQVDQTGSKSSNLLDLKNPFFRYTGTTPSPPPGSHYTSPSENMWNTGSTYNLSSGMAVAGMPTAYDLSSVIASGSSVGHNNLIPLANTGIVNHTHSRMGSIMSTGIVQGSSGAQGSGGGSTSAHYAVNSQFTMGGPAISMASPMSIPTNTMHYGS
Conditions: KMS-27, at 3 µM.

Assay [4] deals with DNA mismatch repair protein Msh6 (Homo sapiens) (UniProt P52701). Description: Selectivity interaction (PWWP, WD40, and Tudor domain panel (DSLS measurements, literature)) EUB0000270b MSH6.
For assay [5], the target named is T4, Histone-lysine N-methyltransferase SMYD3 (Homo sapiens) (UniProt Q9H7B4).
T4 sequence (whole entry): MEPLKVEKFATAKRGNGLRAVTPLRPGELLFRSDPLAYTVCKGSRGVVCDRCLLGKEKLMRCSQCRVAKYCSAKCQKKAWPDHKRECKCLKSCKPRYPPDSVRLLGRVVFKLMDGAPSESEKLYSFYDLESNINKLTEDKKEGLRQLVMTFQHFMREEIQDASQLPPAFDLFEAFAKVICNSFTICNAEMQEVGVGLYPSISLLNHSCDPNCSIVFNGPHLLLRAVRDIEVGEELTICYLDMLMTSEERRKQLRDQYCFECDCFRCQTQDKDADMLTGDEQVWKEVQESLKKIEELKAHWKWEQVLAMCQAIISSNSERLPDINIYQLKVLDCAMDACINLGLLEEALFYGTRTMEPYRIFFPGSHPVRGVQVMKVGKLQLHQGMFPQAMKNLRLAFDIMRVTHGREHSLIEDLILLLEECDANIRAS
Description: Selectivity interaction (Transferase panel (protein, RNA, and DNA methyltransferases. and EP300 (acetyltransferase))) EUB0000270b SMYD3.

A value given as a limit tells only on which side of the number the result lay.

Chain of DNA mismatch repair protein Msh6 (Homo sapiens) (P52701 whole entry, the tested form may be a part): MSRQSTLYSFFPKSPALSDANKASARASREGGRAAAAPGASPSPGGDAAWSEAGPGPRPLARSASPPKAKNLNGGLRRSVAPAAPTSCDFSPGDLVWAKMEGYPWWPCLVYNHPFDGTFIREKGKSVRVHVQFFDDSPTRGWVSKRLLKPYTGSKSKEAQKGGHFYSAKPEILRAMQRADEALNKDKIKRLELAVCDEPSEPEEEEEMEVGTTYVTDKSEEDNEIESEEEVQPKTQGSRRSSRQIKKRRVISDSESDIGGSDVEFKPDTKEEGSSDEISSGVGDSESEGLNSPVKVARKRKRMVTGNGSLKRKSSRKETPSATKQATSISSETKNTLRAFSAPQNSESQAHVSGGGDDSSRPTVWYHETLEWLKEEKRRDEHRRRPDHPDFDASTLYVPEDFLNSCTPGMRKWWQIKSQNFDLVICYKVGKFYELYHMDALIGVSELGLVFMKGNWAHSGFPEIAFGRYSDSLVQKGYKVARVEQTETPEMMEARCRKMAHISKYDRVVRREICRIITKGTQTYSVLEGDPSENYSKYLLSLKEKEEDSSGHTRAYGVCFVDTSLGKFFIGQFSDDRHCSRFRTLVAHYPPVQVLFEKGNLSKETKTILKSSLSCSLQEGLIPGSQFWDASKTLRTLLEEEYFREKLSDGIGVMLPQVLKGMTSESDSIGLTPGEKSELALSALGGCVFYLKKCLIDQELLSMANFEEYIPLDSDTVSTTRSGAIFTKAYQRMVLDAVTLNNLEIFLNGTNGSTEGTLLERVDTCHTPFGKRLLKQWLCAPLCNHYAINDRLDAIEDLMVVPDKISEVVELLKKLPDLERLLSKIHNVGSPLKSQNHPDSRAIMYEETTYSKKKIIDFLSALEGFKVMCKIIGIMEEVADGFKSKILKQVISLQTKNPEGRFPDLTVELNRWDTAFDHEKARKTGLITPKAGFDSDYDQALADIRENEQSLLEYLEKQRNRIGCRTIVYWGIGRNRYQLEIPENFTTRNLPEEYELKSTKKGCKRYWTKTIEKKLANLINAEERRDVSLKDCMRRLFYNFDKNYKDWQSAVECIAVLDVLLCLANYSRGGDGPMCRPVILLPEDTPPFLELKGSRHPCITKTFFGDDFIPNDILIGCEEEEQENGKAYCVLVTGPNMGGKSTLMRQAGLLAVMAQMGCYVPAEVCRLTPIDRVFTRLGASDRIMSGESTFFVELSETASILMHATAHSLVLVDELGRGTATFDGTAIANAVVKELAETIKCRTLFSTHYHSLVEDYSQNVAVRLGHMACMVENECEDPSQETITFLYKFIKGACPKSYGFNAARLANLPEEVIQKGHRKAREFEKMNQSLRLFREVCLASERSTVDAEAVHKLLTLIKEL

For the molecule `CNC(=O)Nc1ccc(-c2nc(N3CC4CCC(C3)O4)c3cnn(C4CCC5(CC4)OCCO5)c3n2)cc1`, in assay [1], the % of inhibition was determined as 24%.

Molecule `Cc1cc([C@@H](C)Nc2ccccc2C(=O)O)c2nc(N3CCOCC3)cc(=O)n2c1` [AZD-6482] gave a % of control in assay [2] of 100%. Consider `CNCCN1CCC(c2cc(CN(C)C(=O)c3cccc(Oc4ccccc4)c3)ccn2)CC1`, for which the % of growth rate in assay [3] was -17.2%.

`Cc1cc(CN)cc(C)c1-c1ncn(C)c1-c1cncn1C` showed a dTagg in assay [4] of -0.2 K. Further, the % activity in assay [5] (at 1 µM) is more than 90%; in assay [5] (at 10 µM), more than 80%.

These data come from ChEMBL document CHEMBL5465560, “Selectivity Literature for EUbOPEN Chemogenomic Library” (2024).
